According to patent US11072634B2, “Inhibitors of transglutaminases” (Zedira GmbH, priority 2016, dated 2021):

Experiments:
TG2 [1] = target: T1, TG2 (Homo sapiens, UniProt P21980); assay: Transglutaminase activity of homogenates of LX-2 cells; format: cell-based; conditions: LX-2, 100 μM, 12 days; read-out: Transglutaminase activity, of the inhibitor free control
T1 sequence (P21980 1-687): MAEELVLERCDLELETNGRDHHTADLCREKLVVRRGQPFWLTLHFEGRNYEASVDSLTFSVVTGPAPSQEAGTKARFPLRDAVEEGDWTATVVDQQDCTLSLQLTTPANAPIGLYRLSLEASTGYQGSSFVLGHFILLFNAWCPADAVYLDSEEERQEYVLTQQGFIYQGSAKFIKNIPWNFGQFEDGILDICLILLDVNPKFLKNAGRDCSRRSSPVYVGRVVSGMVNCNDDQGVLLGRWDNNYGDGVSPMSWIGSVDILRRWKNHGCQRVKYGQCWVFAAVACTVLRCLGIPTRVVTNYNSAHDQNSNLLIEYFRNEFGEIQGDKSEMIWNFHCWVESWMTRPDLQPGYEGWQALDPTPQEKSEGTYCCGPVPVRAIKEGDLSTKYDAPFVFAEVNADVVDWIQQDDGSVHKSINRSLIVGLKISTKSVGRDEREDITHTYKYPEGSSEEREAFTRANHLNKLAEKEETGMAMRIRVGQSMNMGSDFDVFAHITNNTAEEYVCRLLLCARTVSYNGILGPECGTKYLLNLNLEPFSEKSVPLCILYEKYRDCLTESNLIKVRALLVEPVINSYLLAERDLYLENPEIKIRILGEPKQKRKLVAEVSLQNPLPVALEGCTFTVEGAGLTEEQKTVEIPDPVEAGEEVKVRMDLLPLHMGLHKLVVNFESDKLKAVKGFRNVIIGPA
Protocol: A) Transglutaminase activity of homogenates from LX-2-cells grown in standard plastic 6-well plates in the presence of 0-200 μM E22 determined by TG2-selective Tissue Transglutaminase Pico-Assay Kit (#M003, Zedira, Darmstadt, Germany) according to the manufacturer's instructions.
(§1) Human hepatic stellate cell line LX-2 was cultured on standard plastic 6 well plates in Dulbecco's Modified Eagle's Medium containing 100 μg/mL streptomycin, 100 units/ml penicillin, 2 mM glutamine, and 10% (v/v) fetal calf serum. E22 was added to a concentration of 0 μM, 100 μM and 200 μM. Cells were grown at 37° C. and 5% CO2 humidified atmosphere. Medium was exchanged every two days.

BEAS-2B cells = assay: Extracellular matrix protein deposition of LPS-stimulated BEAS-2B cells; format: cell-based, human; conditions: 0-200 μM
Protocol: B) Extracellular matrix protein deposition of homogenates from BEAS-2B-cell grown in the presence of 0-200 μM E22 and stimulated with LPS measured by the DC-protein-assay (BioRad, #5000111).
(§2) Extracellular matrix deposition is a hallmark in pulmonary fibrosis. The BEAS-2B cell line is derived from normal human bronchial epithelium.
(§3) BEAS-2B cells were grown at 37° C. and 5% CO2 in 25 mM HEPES-buffered M199-medium (Merck, Darmstadt) containing 10% FBS, […], 2 mM glutamine, 100 U/ml penicillin (supplemented with […] apotransferrin, 20 ng/ml human epidermal growth factor (EGF), […] insulin, and 0.361 mg/ml hydrocortisone). For the induction of airway fibrosis by epithelial-to-mesenchymal transition (EMT), cells were seeded at 80% confluence on six-well plates. After one day cultivation 4 μg/mL LPS as well as 0 μM, 100 μM or 200 μM E22 were added and then incubated for further 72 h.

TG2 [2] = target: T1, TG2; assay: Transglutaminase activity of homogenates of LPS-stimulated BEAS-2B cells; format: cell-based; conditions: 0-200 μM
Protocol: A) Transglutaminase activity of homogenates from BEAS-2B-cell grown in the presence of 0-200 μM E22 and stimulated with LPS determined by TG2-selective Tissue Transglutaminase Pico-Assay Kit (#M003, Zedira, Darmstadt, Germany) according to the manufacturer's instructions.
as §2, §3

[3] = test system: Human hepatic stellate cell line LX-2; assay: Extracellular matrix protein deposition of LX-2 cells; format: cell-based; conditions: LX-2, 100 μM and 200 μM, 12 days
Protocol: B) Extracellular matrix protein deposition of homogenates from LX-2-cells grown in standard plastic 6-well plates in the presence of 0-200 μM E22 measured by the DC-protein-assay (BioRad, #5000111).
as §1

Q: For `CCCCCNC(=O)C(=O)CC[C@H](NC(=O)[C@@H]1CCCN1C(C)=O)C(=O)Nc1cccn(CC(=O)NCC(CC)CC)c1=O` [Compound E22, (S)-2-((S)-1-acetylpyrrolidine-2-carboxamido)-N1-(1-(2-(2-ethylbutylamino)-2-oxoethyl)-2-oxo-1,2-dihydropyridin-3-yl)-5-oxo-N6-pentylhexanediamide], which remaining activity at 100 µM (TG2 [1]) is on record?
A: < 5%

Q: And the “deposition of ECM-proteins” value (BEAS-2B cells)?
A: significantly reduced, also in a dose dependent manner

Q: And the Transglutaminase activity (TG2 [2])?
A: dose dependent reduction

Q: And the “extracellular matrix deposition, of control” value [3]?
A: about 30%
